According to patent publication US4374149A, “α-{[(Arylalkyl)amino]alkyl}-4-hydroxy-3-(lower-alkylsul finyl)benzenemethanols” (Sterling Drug Inc., priority 1978, dated 1983):

Tests used:
[1] = system: cardiac contractile force; assay: Cardiotonic test procedure II, intact anesthetized dog; format: in vivo, mongrel dogs
Procedure: The efficacy of this compound was judged, in vitro, on the basis of percent increase in contractile force in isolated cat atria and papillary muscle and, in vitro, on the basis of percent increase in cardiac contractile force in the intact anesthetized dog. The in vivo test procedure used is described as follows: Mongrel dogs of both sexes and varying in weight from 9 to 15 kg. were anesthetized with 30 mg./kg. pentobarbital sodium administered intravenously. The trachea was exposed and cannulated. The tracheal cannula was then attached to a Harvard respiratory pump using room air. The right femoral artery and vein were cannulated. […] The venous cannula was used for the intravenous administration of drugs. Pin electrodes were attached to the right forelimb and left hindlimb. The electrodes were then connected to a Grass polygraph for the continuous recording of the standard limb lead II electrocardiogram. A ventro-dorsal incision at the third inter-costal space was made, the ribs laterally retracted and the pericardium slit open to expose the myocardium. The base of the aorta was dissected and a flow probe was fitted around it. The flow probe was attached to a square wave electromagnetic flowmeter (Carolina Medical Electronics). The flowmeter was then connected to a Grass polygraph for the continuous recording of aortic blood flow. This flow was used as an index of cardiac output (actual cardiac output is aortic blood flow+coronary blood flow). Cardiac contractile force was measured by suturing a Walton-Brodie strain gauge to the wall of the right ventricle. At the end of the surgical procedure, the animal was left to rest and equilibrate for one hour with continuous recording of blood pressure, EKG, cardiac contractile force and aortic blood flow. After the equilibration period, the vehicle or the drug dissolved in the vehicle was administered by intravenous infusion (i.v. inf.), intravenous bolus (i.v. bol.) or intraduodenally (i.d.) and the response of all the parameters measured to drug administration was recorded continuously for different periods of times depending on the route of drug administration. When the route of administration was i.v. inf., the drug was administered until a peak effect was reached and infusion was then maintained for ten minutes. The above-described test systems were standardized using dopamine.

[2] = system: β-adrenergic; assay: β-adrenergic blocking activity, inhibition of isoproterenol-elicited heart rate increase in pentobarbitalized dog; format: in vivo; settings: i.v.
Procedure: The β-adrenergic blocking activity was determined in the pentobarbitalized dog as judged by the ability of the test compound to inhibit the elevation in heart rate elicited by a 0.5 mcg./kg. i.v. injection of isoproterenol.
^e AED50 = approximate intravenous dose required to cause 50%

[3] = system: blood pressure; assay: Antihypertensive activity, sustained lowering of blood pressure, repeated oral medication, unanesthetized trained renal hypertensive dog; format: in vivo
Description: Antihypertensive activity was also judged on the basis of sustained reduction of blood pressure observed in the unanesthetized trained renal hypertensive dog following repeated oral medication according to the procedure described by Lape et al., Arch.
^b MED10 = minimum repeated oral daily dose required to effect a

[4] = system: systolic blood pressure; assay: Antihypertensive activity, reduction in systolic blood pressure, single oral medication, unanesthetized spontaneous hypertensive rat; format: in vivo; settings: P.O., single dose, unanesthetized SH rat
Procedure: Antihypertensive activity was determined on the basis of the observed reduction in systolic blood pressure measured according to the method of H. Kersten et al., J. Lab. and Clin. Med. 32, 1090 (1947) following a single oral medication in the unanesthetized spontaneous hypertensive rat described by Okamato et al., Japan Circulation J. 27, 282 (1963).
^a AHD40 = single oral dose required to induce a 40 mm. average

[5] = system: papillary muscle; assay: Cardiotonic test procedure IB, isolated cat papillary muscle; settings: in vitro
Procedure: The efficacy of this compound was judged, in vitro, on the basis of percent increase in contractile force in isolated cat atria and papillary muscle and, in vitro, on the basis of percent increase in cardiac contractile force in the intact anesthetized dog. Male cats 0.8 to 1.5 kg. were anethetized with α-chloralose (80 mg./kg. i.p.). The chest was opened and the heart excised. The heart was dipped and shaken in Tyrode's solution for the removal of blood from the cavities. The right ventricle was then slit open and the small and thin (about 1 mm. in diameter and 4 to 7 mm. in length) papillary muscles were dissected out. A silver wire was attached to each of the two ends of the papillary muscle. The ventricular end was attached to a platinum electrode and mounted in a tissue bath containing Tyrode's solution described above. The silver wire on the valvular end of the muscle was attached to a force displacement transducer for the measurement of the force and rate of muscle contraction. The muscle was stimulated at a rate of 3 beats/sec. by suprathreshold rectangular pulses of 5 millisecond duration. The rest of the procedure was continued as described above.

[6] = system: arrhythmia; assay: Antiarrhythmic activity (in words, test not specified); settings: in vivo
Procedure: The test procedures were carried out as follows.

[7] = system: isolated cat atria; assay: Cardiotonic test procedure I, isolated cat atria; settings: for Increase in right atrial force / Increase in right atrial rate: in vitro
Procedure: The efficacy of this compound was judged, in vitro, on the basis of percent increase in contractile force in isolated cat atria and papillary muscle and, in vitro, on the basis of percent increase in cardiac contractile force in the intact anesthetized dog. Male cats weighing from 0.8 to 1.5 kg. were anesthetized with α-chloralose (80 mg./kg. i.p.). The chest was opened, the heart excised and the two atria dissected. A silk suture was tied to each of two opposite sides of the right atrium. One side of the atrium was tied to a glass rod and then mounted in a 50 ml. organ bath filled with Tyrode's solution. […] The transducer was then connected to a Grass polygraph and the force and rate of atrial contraction was recorded continuously. The left atrium was treated similarly using silver wire instead of silk sutures. The silver wire also served as a stimulating electrode. Both atria were mounted in the same bath. The right atrium was beating spontaneously due to the presence of the sinoatrial node, while the left atrium was stimulated electrically at a rate of 3 beats/sec. by suprathreshold rectangular pulses of 5 millisecond duration. The Tyrode's solution bathing the atria was of the following composition (in mM): NaCl 136.87, KCl 5.36, NaH2 PO4 0.41, CaCl2 1.80, MgCl2 6H2 O 1.05, NaHCO3 11.90, glucose 5.55 and EDTA 0.04. […] The preparation was left to equilibrate for one hour before any drug was added. The bathing fluid was changed 3 to 4 times during the equilibration time. At the end of equilibration period, the drug dissolved in a vehicle or the vehicle alone was added to the tissue bath and the full response recorded. The vehicle used was Tyrode' s solution to which, if required, sufficient acid was added to cause solution of the drug. […] Generally, a dose response study of at least 3 doses was done in the same preparation.

With COc1ccc(CCC(C)NCC(=O)c2ccc(O)c([S+](C)[O-])c2)cc1.Cl (stereo not shown) [Example 26B, 4'-hydroxy-2-[3-(4-methoxyphenyl)-1-methylpropyl]amino-3'-(methylsulfinyl)-acetophenone hydrochloride] the “Increase in cardiac contractile force” value ([1]; 1.0 mg./kg., first series) was 22%, the “Increase in cardiac contractile force” value ([1]; 1.0 mg./kg., second, similar series) was 4% and the “Increase in cardiac contractile force” value ([1]; 3.0 mg./kg., first series) was 25%. For the same molecule, the “Increase in cardiac contractile force” value ([1]; 3.0 mg./kg., second, similar series) was 12%, the “Increase in cardiac contractile force” value ([1]; 10.0 mg./kg., first series) was 59% and the “Increase in cardiac contractile force” value ([1]; 10.0 mg./kg., second, similar series) was 50%. For the same molecule, the “Actual percentage inhibition of heart rate increase above control level observed at the indicated dose” value ([2]; 1.0 mg./kg.) was 18%, the “Dog β-blockade AED50 (approximate intravenous dose for 50% inhibition of isoproterenol-elicited heart rate increase)” value ([2]; pentobarbitalized dog) was greater than 1.0 mg/kg and the “Renal Hypertensive Dog MED10 (minimum repeated oral daily dose for sustained lowering of blood pressure of 10% or greater)” value ([3]; administered once per day) was greater than 20 mg/kg. The “Actual percentage reduction in blood pressure observed at the indicated dose” value ([3]; once per day, 20 mg./kg.) was 0, the “Antihypertensive activity SH Rat AHD40 (single oral dose required to induce a 40 mm. average reduction in systolic blood pressure)” value [4] was “ca. 40.0 mg./kg” and the “Increase in papillary muscle force” value ([5]; 10 /ml.) was 7%. For the same molecule, the “Increase in papillary muscle force” value ([5]; 30 /ml.) was 23%, the “Increase in papillary muscle force” value ([5]; 100 /ml.) was 38% and the “Antiarrhythmic activity (in words)” value [6] was “antiarrhythmic activity”. The “Increase in right atrial force” value ([7]; 10 /ml.) was 1%, the “Increase in right atrial rate” value ([7]; 10 /ml.) was 0% and the “Increase in right atrial force” value ([7]; 30 /ml.) was 5%. The “Increase in right atrial rate” value ([7]; 30 /ml.) was 3%, the “Increase in right atrial force” value ([7]; 100 /ml.) was 6% and the “Increase in right atrial rate” value ([7]; 100 /ml.) was 8%. The “Cardiotonic activity (in words)” value ([7]; one or more of the cardiotonic test procedures) was “cardiotonic activity”.
